# System: HCV replicon cells
# Assay: Cell-based HCV replicon assay (replicon RNA by Taqman real time PCR)
# Conditions: HCV replicon 1b, cells harvested on day 3; read-out: 1b EC50
row,SMILES,EC50 [µM]
1,"COC(=O)[C@H](C)NP1(=O)OC[C@H]2O[C@@H](n3ccc(N)nc3=O)[C@](C)(N=[N+]=[N-])[C@@H]2O1 (single isomer, unassigned) [Compound 530]",67
2,"C[C@@]1(N=[N+]=[N-])[C@@H]2OP(=O)(OC3CCCC3)OC[C@H]2O[C@H]1n1ccc(=O)[nH]c1=O (single isomer, unassigned) [Compound 561]",3.1
3,"C[C@@]1(N=[N+]=[N-])[C@@H]2OP(=O)(OC3CCCC3)OC[C@H]2O[C@H]1n1ccc(=O)[nH]c1=O (single isomer, unassigned) [Compound 562]",0.4
4,"CC(C)OP1(=O)OC[C@H]2O[C@@H](n3ccc(=O)[nH]c3=O)[C@](C)(N=[N+]=[N-])[C@@H]2O1 (single isomer, unassigned) [Compound 563]",> 100
5,"CC(C)OP1(=O)OC[C@H]2O[C@@H](n3ccc(=O)[nH]c3=O)[C@](C)(N=[N+]=[N-])[C@@H]2O1 (single isomer, unassigned) [Compound 564]",> 100
6,"CCCOP1(=O)OC[C@H]2O[C@@H](n3ccc(=O)[nH]c3=O)[C@](C)(N=[N+]=[N-])[C@@H]2O1 (single isomer, unassigned) [Compound 565]",> 100
7,"CCCOP1(=O)OC[C@H]2O[C@@H](n3ccc(=O)[nH]c3=O)[C@](C)(N=[N+]=[N-])[C@@H]2O1 (single isomer, unassigned) [Compound 566]",> 100

# Same assay, conditions: Hepatitis C virus, 72 h, HCV replicon 1b, cells harvested on day 3; read-out: 1b EC50
row,SMILES,EC50 [µM]
1,"COC(=O)[C@H](C)NP1(=O)OC[C@H]2O[C@@H](n3ccc(N)nc3=O)[C@](C)(N=[N+]=[N-])[C@@H]2O1 (single isomer, unassigned) [Compound 529]",59
2,C[C@@]1(N=[N+]=[N-])[C@H](O)[C@@H](CO)O[C@H]1n1ccc(N)nc1=O [Compound 1],26
3,CC(=O)Nc1ccn([C@@H]2O[C@H](CO)[C@@H](O)[C@@]2(C)N=[N+]=[N-])c(=O)n1 [Compound 2],75
4,C[C@@]1(N=[N+]=[N-])[C@H](O)[C@@H](CO)O[C@H]1n1ccc(=O)[nH]c1=O [Compound 4],> 100
5,CCOc1nc(N)nc2c1ncn2[C@@H]1O[C@H](CO)[C@@H](O)[C@@]1(C)N=[N+]=[N-] [Compound 8],> 100

# Same assay, conditions: Hepatitis C virus, 72 h, read-out: 1b EC50
row,SMILES,EC50 [µM]
1,"C[C@H](NP(=O)(OC[C@H]1O[C@@H](n2ccc(N)nc2=O)[C@](C)(N=[N+]=[N-])[C@@H]1O)Oc1ccccc1)C(=O)OC1CCCCC1 (single isomer, unassigned) [Compound 337]",27
2,"C[C@H](NP(=O)(OC[C@H]1O[C@@H](n2ccc(N)nc2=O)[C@](C)(N=[N+]=[N-])[C@@H]1O)Oc1ccc(Cl)cc1)C(=O)OC1CCCCC1 (single isomer, unassigned) [Compound 339]",14
3,"COC(=O)[C@H](C)NP(=O)(OC[C@H]1O[C@@H](n2ccc(N)nc2=O)[C@](C)(N=[N+]=[N-])[C@@H]1O)Oc1ccc(Cl)c(Cl)c1 (single isomer, unassigned) [Compound 343]",61
4,"COC(=O)[C@H](C)NP(=O)(OC)OC[C@H]1O[C@@H](n2ccc(N)nc2=O)[C@](C)(N=[N+]=[N-])[C@@H]1O (single isomer, unassigned) [Compound 345]",> 100
5,"CCOC(=O)[C@H](C)NP(=O)(OC[C@H]1O[C@@H](n2cnc3c(OCC)nc(N)nc32)[C@](C)(N=[N+]=[N-])[C@@H]1O)Oc1ccc(Cl)cc1 (single isomer, unassigned) [Compound 352]",1.1
6,"CCOc1nc(N)nc2c1ncn2[C@@H]1O[C@H](COP(=O)(N[C@@H](C)C(=O)OC)Oc2cccc3ccccc23)[C@@H](O)[C@@]1(C)N=[N+]=[N-] (single isomer, unassigned) [Compound 355]",1.3
7,"CCOC(=O)[C@H](C)NP(=O)(OC[C@H]1O[C@@H](n2cnc3c(OCC)nc(N)nc32)[C@](C)(N=[N+]=[N-])[C@@H]1O)Oc1ccccc1Cl (single isomer, unassigned) [Compound 358]",2.3
8,"CCCOC(=O)[C@H](C)N[P@@](=O)(OC[C@H]1O[C@@H](n2ccc(=O)[nH]c2=O)[C@](C)(N=[N+]=[N-])[C@@H]1O)Oc1cccc2ccccc12 (single isomer, unassigned) [Compound 375]",0.8
9,"CCCOC(=O)[C@H](C)N[P@](=O)(OC[C@H]1O[C@@H](n2ccc(=O)[nH]c2=O)[C@](C)(N=[N+]=[N-])[C@@H]1O)Oc1cccc2ccccc12 (single isomer, unassigned) [Compound 376]",2.2
10,CCCCOC(=O)[C@H](C)NP(=O)(OC[C@H]1O[C@@H](n2ccc(N)nc2=O)[C@](C)(N=[N+]=[N-])[C@@H]1O)Oc1cccc2ccccc12 (some centres unmarked) [Compound 3],1.2
11,COC(=O)[C@H](C)NP(=O)(OC[C@H]1O[C@@H](n2ccc(=O)[nH]c2=O)[C@](C)(N=[N+]=[N-])[C@@H]1O)Oc1ccccc1 (some centres unmarked) [Compound 5],3.3
12,CCCCOC(=O)[C@H](C)NP(=O)(OC[C@H]1O[C@@H](n2ccc(=O)[nH]c2=O)[C@](C)(N=[N+]=[N-])[C@@H]1O)Oc1cccc2ccccc12 (some centres unmarked) [Compound 6],1.1
13,CCOc1nc(N)nc2c1ncn2[C@@H]1O[C@H](COP(=O)(N[C@@H](C)C(=O)OC)Oc2ccccc2)[C@@H](O)[C@@]1(C)N=[N+]=[N-] (some centres unmarked) [Compound 9],0.8
14,CCOC(=O)[C@H](C)NP(=O)(OC[C@H]1O[C@@H](n2cnc3c(OCC)nc(N)nc32)[C@](C)(N=[N+]=[N-])[C@@H]1O)Oc1ccccc1 (some centres unmarked) [Compound 10],0.9
15,CCOc1nc(N)nc2c1ncn2[C@@H]1O[C@H](COP(=O)(N[C@@H](C)C(=O)OCC(C)(C)C)Oc2ccccc2)[C@@H](O)[C@@]1(C)N=[N+]=[N-] (some centres unmarked) [Compound 11],1.1
16,CCCCOC(=O)[C@H](C)NP(=O)(OC[C@H]1O[C@@H](n2cnc3c(OCC)nc(N)nc32)[C@](C)(N=[N+]=[N-])[C@@H]1O)Oc1cccc2ccccc12 (some centres unmarked) [Compound 12],1.3
17,CCOC(=O)[C@H](C)NP(=O)(OC[C@H]1O[C@@H](n2ccc(N)nc2=O)[C@](C)(N=[N+]=[N-])[C@@H]1O)Oc1ccccc1 (some centres unmarked) [Compound 13],6.4
18,C[C@H](NP(=O)(OC[C@H]1O[C@@H](n2ccc(N)nc2=O)[C@](C)(N=[N+]=[N-])[C@@H]1O)Oc1ccccc1)C(=O)OCC(C)(C)C (some centres unmarked) [Compound 14],32
19,CCOC(=O)[C@H](C)NP(=O)(OC[C@H]1O[C@@H](n2ccc(=O)[nH]c2=O)[C@](C)(N=[N+]=[N-])[C@@H]1O)Oc1ccccc1 (some centres unmarked) [Compound 15],1.4
20,C[C@H](NP(=O)(OC[C@H]1O[C@@H](n2ccc(=O)[nH]c2=O)[C@](C)(N=[N+]=[N-])[C@@H]1O)Oc1ccccc1)C(=O)OCC(C)(C)C (some centres unmarked) [Compound 16],1

# Same assay, conditions: read-out: 1b EC50
row,SMILES,EC50 [µM]
1,"CC(C)OC(=O)[C@H](C)NP(=O)(OC[C@H]1O[C@@H](n2ccc(N)nc2=O)[C@](C)(N=[N+]=[N-])[C@@H]1O)Oc1ccc2c(c1)OCO2 (single isomer, unassigned) [Compound 335]",> 100
2,"C[C@H](NP(=O)(OC[C@H]1O[C@@H](n2ccc(N)nc2=O)[C@](C)(N=[N+]=[N-])[C@@H]1O)Oc1ccccc1)C(=O)OC1CCCCC1 (single isomer, unassigned) [Compound 338]",26
3,"C[C@H](NP(=O)(OC[C@H]1O[C@@H](n2ccc(N)nc2=O)[C@](C)(N=[N+]=[N-])[C@@H]1O)Oc1ccc(Cl)cc1)C(=O)OC1CCCCC1 (single isomer, unassigned) [Compound 340]",20
4,"COC(=O)[C@H](C)NP(=O)(OC[C@H]1O[C@@H](n2ccc(N)nc2=O)[C@](C)(N=[N+]=[N-])[C@@H]1O)Oc1ccc(Cl)c(Cl)c1 (single isomer, unassigned) [Compound 344]",35
5,"COC(=O)[C@H](C)NP(=O)(OC)OC[C@H]1O[C@@H](n2ccc(N)nc2=O)[C@](C)(N=[N+]=[N-])[C@@H]1O (single isomer, unassigned) [Compound 346]",> 100
6,"CCOc1nc(N)nc2c1ncn2[C@@H]1O[C@H](COP(=O)(N[C@@H](C)C(=O)OCc2ccccc2)Oc2ccccc2)[C@@H](O)[C@@]1(C)N=[N+]=[N-] (single isomer, unassigned) [Compound 350]",1
7,"CCOc1nc(N)nc2c1ncn2[C@@H]1O[C@H](COP(=O)(N[C@@H](C)C(=O)OCc2ccccc2)Oc2ccccc2)[C@@H](O)[C@@]1(C)N=[N+]=[N-] (single isomer, unassigned) [Compound 351]",2.6
8,"CCOC(=O)[C@H](C)NP(=O)(OC[C@H]1O[C@@H](n2cnc3c(OCC)nc(N)nc32)[C@](C)(N=[N+]=[N-])[C@@H]1O)Oc1ccc(Cl)cc1 (single isomer, unassigned) [Compound 353]",0.9
9,"CCOC(=O)[C@H](C)NP(=O)(OC[C@H]1O[C@@H](n2cnc3c(OCC)nc(N)nc32)[C@](C)(N=[N+]=[N-])[C@@H]1O)Oc1ccccc1Cl (single isomer, unassigned) [Compound 359]",3.3
10,"CCOc1nc(N)nc2c1ncn2[C@@H]1O[C@H](COP(=O)(N[C@@H](C)C(=O)OC(C)C)Oc2ccc(Cl)c(Cl)c2)[C@@H](O)[C@@]1(C)N=[N+]=[N-] (single isomer, unassigned) [Compound 360]",4.8
11,"CCOc1nc(N)nc2c1ncn2[C@@H]1O[C@H](COP(=O)(N[C@@H](C)C(=O)OC(C)C)Oc2ccc(Cl)c(Cl)c2)[C@@H](O)[C@@]1(C)N=[N+]=[N-] (single isomer, unassigned) [Compound 361]",11.2
12,"CCOc1nc(N)nc2c1ncn2[C@@H]1O[C@H](COP(=O)(N[C@@H](C)C(=O)OC2CCC2)Oc2ccccc2)[C@@H](O)[C@@]1(C)N=[N+]=[N-] (single isomer, unassigned) [Compound 362]",2.6
13,"CCOc1nc(N)nc2c1ncn2[C@@H]1O[C@H](COP(=O)(N[C@@H](C)C(=O)OC2CCC2)Oc2ccccc2)[C@@H](O)[C@@]1(C)N=[N+]=[N-] (single isomer, unassigned) [Compound 363]",0.2
14,"CCOc1nc(N)nc2c1ncn2[C@@H]1O[C@H](COP(=O)(N[C@@H](C)C(=O)OC(C)C)Oc2ccc(F)cc2)[C@@H](O)[C@@]1(C)N=[N+]=[N-] (single isomer, unassigned) [Compound 364]",6.4
15,"CCOc1nc(N)nc2c1ncn2[C@@H]1O[C@H](COP(=O)(N[C@@H](C)C(=O)OC(C)C)Oc2ccc(F)cc2)[C@@H](O)[C@@]1(C)N=[N+]=[N-] (single isomer, unassigned) [Compound 365]",1.1

# Source: patent publication US9156872B2, “2′-azido substituted nucleoside derivatives and methods of use thereof for the treatment of viral diseases” (priority 2011, dated 2015)
